From ChEMBL document CHEMBL5608246, “Membrane-Targeting Amphiphilic Honokiol Derivatives Containing an Oxazole Moiety as Potential Antibacterials against Methicillin-Resistant Staphylococcus aureus” (J Med Chem, 2024)

Key:
Staphylococcus aureus [1] = assay: Antibacterial activity against methicillin resistant Staphylococcus aureus M12 incubated for 16 to 18 hrs by broth dilution method; type: functional; settings: time 16-18 hrs
Staphylococcus aureus [2] = assay: Antibacterial activity against methicillin resistant Staphylococcus aureus M16 incubated for 16 to 18 hrs by broth dilution method; type: functional; settings: time 16-18 hrs
Staphylococcus aureus [3] = assay: Antibacterial activity against methicillin resistant Staphylococcus aureus M20 incubated for 16 to 18 hrs by broth dilution method; type: functional; settings: time 16-18 hrs
Staphylococcus aureus [4] = assay: Antibacterial activity against methicillin resistant Staphylococcus aureus M21 incubated for 16 to 18 hrs by broth dilution method; type: functional; settings: time 16-18 hrs
Staphylococcus aureus [5] = assay: Antibacterial activity against methicillin resistant Staphylococcus aureus M11 incubated for 16 to 18 hrs by broth dilution method; type: functional; settings: time 16-18 hrs
Escherichia coli = assay: Antibacterial activity against Escherichia coli ATCC 25922 incubated for 16 to 18 hrs by broth dilution method; type: functional; settings: time 16-18 hrs
Staphylococcus aureus [6] = assay: Antibacterial activity against methicillin resistant Staphylococcus aureus M13 incubated for 16 to 18 hrs by broth dilution method; type: functional; settings: time 16-18 hrs
Staphylococcus aureus [7] = assay: Antibacterial activity against methicillin resistant Staphylococcus aureus M23 incubated for 16 to 18 hrs by broth dilution method; type: functional; settings: time 16-18 hrs
Staphylococcus aureus [8] = assay: Antibacterial activity against methicillin resistant Staphylococcus aureus N315 incubated for 16 to 18 hrs by broth dilution method; type: functional; settings: time 16-18 hrs
[9] = Selectivity index, ratio of HC50 for sheep RBC to MIC for Staphylococcus aureus ATCC 29213; type: toxicity; settings: sheep red blood cells, read-out: Selectivity Index
Staphylococcus aureus [10] = assay: Antibacterial activity against Staphylococcus aureus ATCC 29213 incubated for 16 to 18 hrs by broth dilution method; type: functional; settings: time 16-18 hrs
Staphylococcus aureus [11] = assay: Antibacterial activity against methicillin resistant Staphylococcus aureus M22 incubated for 16 to 18 hrs by broth dilution method; type: functional; settings: time 16-18 hrs
Staphylococcus aureus [12] = assay: Antibacterial activity against methicillin resistant Staphylococcus aureus M14 incubated for 16 to 18 hrs by broth dilution method; type: functional; settings: time 16-18 hrs
Staphylococcus aureus [13] = assay: Antibacterial activity against methicillin resistant Staphylococcus aureus M17 incubated for 16 to 18 hrs by broth dilution method; type: functional; settings: time 16-18 hrs
[14] = Hemolytic activity in sheep RBC incubated for 1 hr; type: toxicity, cell-based, Ovis aries, Erythrocyte; settings: sheep red blood cells (erythrocytes)

Work on `C=CCc1cc(-c2ccc(OCCC[N+](C)(C)CC(=O)NCCCC)c(CC=C)c2)c2oc(-c3ccccc3F)nc2c1.[Br-]` yielded an MIC (Staphylococcus aureus [1]) of 4 µg/mL, an MIC (Staphylococcus aureus [2]) of 4 µg/mL and an MIC (Staphylococcus aureus [3]) of 4 µg/mL. It also gave an MIC (Staphylococcus aureus [4]) of 8 µg/mL, an MIC (Staphylococcus aureus [5]) of 4 µg/mL and an MIC (Escherichia coli) of 128 µg/mL. The MIC (Staphylococcus aureus [6]) was 4 µg/mL, the MIC (Staphylococcus aureus [7]) was 4 µg/mL and the MIC (Staphylococcus aureus [8]) was 8 µg/mL. For the same compound, the selectivity ratio [9] was 27.4, the MIC (Staphylococcus aureus [10]) was 4 µg/mL and the MIC (Staphylococcus aureus [11]) was 4 µg/mL. It also gave an MIC (Staphylococcus aureus [12]) of 4 µg/mL, an MIC (Staphylococcus aureus [13]) of 4 µg/mL and an HC50 at 1 h [14] of 110 µg/mL.

`C=CCc1cc(-c2ccc(OCCC[N+](C)(C)CC(=O)NCCCC)c(CC=C)c2)c2oc(-c3ccc(F)c(Cl)c3)nc2c1.[Br-]` gave an MIC (Staphylococcus aureus [1]) of 8 µg/mL, an MIC (Staphylococcus aureus [2]) of 8 µg/mL and an MIC (Staphylococcus aureus [3]) of 8 µg/mL. The MIC (Staphylococcus aureus [4]) was 8 µg/mL, the MIC (Staphylococcus aureus [5]) was 8 µg/mL and the MIC (Escherichia coli) was greater than 128 µg/mL. It also gave an MIC (Staphylococcus aureus [6]) of 8 µg/mL, an MIC (Staphylococcus aureus [7]) of 8 µg/mL and an MIC (Staphylococcus aureus [8]) of 16 µg/mL. For the same compound, the selectivity ratio [9] was greater than 5, the MIC (Staphylococcus aureus [10]) was 64 µg/mL and the MIC (Staphylococcus aureus [11]) was 16 µg/mL. It also gave an MIC (Staphylococcus aureus [12]) of 4 µg/mL, an MIC (Staphylococcus aureus [13]) of 32 µg/mL and an HC50 at 1 h [14] greater than 320 µg/mL.

In the case of `C=CCc1cc(-c2ccc(OCCC[N+](C)(C)CC(=O)NCCCC)c(CC=C)c2)c2oc(-c3ccc(Cl)cc3)nc2c1.[Br-]`, the MIC (Staphylococcus aureus [1]) is reported as 4 µg/mL, the MIC (Staphylococcus aureus [2]) is reported as 4 µg/mL and the MIC (Staphylococcus aureus [3]) is reported as 8 µg/mL. It also gave an MIC (Staphylococcus aureus [4]) of 4 µg/mL, an MIC (Staphylococcus aureus [5]) of 4 µg/mL and an MIC (Escherichia coli) greater than 128 µg/mL. It also gave an MIC (Staphylococcus aureus [6]) of 4 µg/mL, an MIC (Staphylococcus aureus [7]) of 4 µg/mL and an MIC (Staphylococcus aureus [8]) of 8 µg/mL. It also gave a selectivity ratio [9] greater than 40, an MIC (Staphylococcus aureus [10]) of 16 µg/mL and an MIC (Staphylococcus aureus [11]) of 8 µg/mL. The MIC (Staphylococcus aureus [12]) was 8 µg/mL, the MIC (Staphylococcus aureus [13]) was 4 µg/mL and the HC50 at 1 h [14] was greater than 640 µg/mL.

For `C=CCc1cc(-c2ccc(OCCC[N+](C)(C)CC(=O)NCCCC)c(CC=C)c2)c2oc(-c3ccc(Cl)cc3F)nc2c1.[Br-]`, the MIC (Staphylococcus aureus [1]) was 128 µg/mL, the MIC (Staphylococcus aureus [2]) was 128 µg/mL and the MIC (Staphylococcus aureus [3]) was 128 µg/mL. It also gave an MIC (Staphylococcus aureus [4]) of 128 µg/mL, an MIC (Staphylococcus aureus [5]) greater than 128 µg/mL and an MIC (Escherichia coli) of 128 µg/mL. The MIC (Staphylococcus aureus [6]) was greater than 128 µg/mL, the MIC (Staphylococcus aureus [7]) was 128 µg/mL and the MIC (Staphylococcus aureus [8]) was greater than 128 µg/mL. The MIC (Staphylococcus aureus [10]) was greater than 128 µg/mL, the MIC (Staphylococcus aureus [11]) was 128 µg/mL and the MIC (Staphylococcus aureus [12]) was 64 µg/mL. The MIC (Staphylococcus aureus [13]) was 128 µg/mL and the HC50 at 1 h [14] was greater than 640 µg/mL.

Work on `C=CCc1cc(-c2ccc(OCCC[N+](C)(C)CC(=O)NCCCC)c(CC=C)c2)c2oc(-c3cccc(OC)c3)nc2c1.[Br-]` yielded an MIC (Staphylococcus aureus [1]) of 16 µg/mL, an MIC (Staphylococcus aureus [2]) of 8 µg/mL and an MIC (Staphylococcus aureus [3]) of 8 µg/mL. It also gave an MIC (Staphylococcus aureus [4]) of 8 µg/mL, an MIC (Staphylococcus aureus [5]) of 8 µg/mL and an MIC (Escherichia coli) greater than 128 µg/mL. It also gave an MIC (Staphylococcus aureus [6]) of 16 µg/mL, an MIC (Staphylococcus aureus [7]) of 8 µg/mL and an MIC (Staphylococcus aureus [8]) of 8 µg/mL. For the same compound, the selectivity ratio [9] was 9.6, the MIC (Staphylococcus aureus [10]) was 32 µg/mL and the MIC (Staphylococcus aureus [11]) was 16 µg/mL. The MIC (Staphylococcus aureus [12]) was 8 µg/mL, the MIC (Staphylococcus aureus [13]) was 8 µg/mL and the HC50 at 1 h [14] was 307 µg/mL.

Work on `C=CCc1cc(-c2ccc(OCCC[N+](C)(C)CC(=O)NCCCC)c(CC=C)c2)c2oc(-c3ccc(Cl)cc3Br)nc2c1.[Br-]` yielded an MIC (Staphylococcus aureus [1]) greater than 128 µg/mL, an MIC (Staphylococcus aureus [2]) of 128 µg/mL and an MIC (Staphylococcus aureus [3]) greater than 128 µg/mL. The MIC (Staphylococcus aureus [4]) was greater than 128 µg/mL, the MIC (Staphylococcus aureus [5]) was 128 µg/mL and the MIC (Escherichia coli) was greater than 128 µg/mL. The MIC (Staphylococcus aureus [6]) was greater than 128 µg/mL, the MIC (Staphylococcus aureus [7]) was greater than 128 µg/mL and the MIC (Staphylococcus aureus [8]) was greater than 128 µg/mL. The MIC (Staphylococcus aureus [10]) was greater than 128 µg/mL, the MIC (Staphylococcus aureus [11]) was 128 µg/mL and the MIC (Staphylococcus aureus [12]) was 128 µg/mL. For the same compound, the MIC (Staphylococcus aureus [13]) was greater than 128 µg/mL and the HC50 at 1 h [14] was greater than 320 µg/mL.

`C=CCc1cc(-c2ccc(OCCC[N+](C)(C)CC(=O)NCCCC)c(CC=C)c2)c2oc(-c3ccc(OC)cc3)nc2c1.[Br-]` gave an MIC (Staphylococcus aureus [1]) of 4 µg/mL, an MIC (Staphylococcus aureus [2]) of 2 µg/mL and an MIC (Staphylococcus aureus [3]) of 2 µg/mL. It also gave an MIC (Staphylococcus aureus [4]) of 2 µg/mL, an MIC (Staphylococcus aureus [5]) of 2 µg/mL and an MIC (Escherichia coli) greater than 128 µg/mL. The MIC (Staphylococcus aureus [6]) was 4 µg/mL, the MIC (Staphylococcus aureus [7]) was 2 µg/mL and the MIC (Staphylococcus aureus [8]) was 4 µg/mL. It also gave a selectivity ratio [9] greater than 40, an MIC (Staphylococcus aureus [10]) of 8 µg/mL and an MIC (Staphylococcus aureus [11]) of 2 µg/mL. It also gave an MIC (Staphylococcus aureus [12]) of 2 µg/mL, an MIC (Staphylococcus aureus [13]) of 4 µg/mL and an HC50 at 1 h [14] of 320 µg/mL.

With `C=CCc1cc(-c2ccc(OCCC[N+](C)(C)CC(=O)NCCCC)c(CC=C)c2)c2oc(-c3ccc(Br)cc3Br)nc2c1.[Br-]` the MIC (Staphylococcus aureus [1]) was 16 µg/mL, the MIC (Staphylococcus aureus [2]) was 16 µg/mL and the MIC (Staphylococcus aureus [3]) was 16 µg/mL. For the same compound, the MIC (Staphylococcus aureus [4]) was 16 µg/mL, the MIC (Staphylococcus aureus [5]) was 32 µg/mL and the MIC (Escherichia coli) was greater than 128 µg/mL. It also gave an MIC (Staphylococcus aureus [6]) of 16 µg/mL, an MIC (Staphylococcus aureus [7]) of 32 µg/mL and an MIC (Staphylococcus aureus [8]) of 64 µg/mL. It also gave a selectivity ratio [9] of 1.3, an MIC (Staphylococcus aureus [10]) of 128 µg/mL and an MIC (Staphylococcus aureus [11]) of 32 µg/mL. The MIC (Staphylococcus aureus [12]) was 32 µg/mL, the MIC (Staphylococcus aureus [13]) was 64 µg/mL and the HC50 at 1 h [14] was 170 µg/mL.

Compound `C=CCc1cc(-c2ccc(OCCC[N+](C)(C)CC(=O)NCCCC)c(CC=C)c2)c2oc(-c3ccc(Cl)cc3Cl)nc2c1.[Br-]` has an MIC (Staphylococcus aureus [1]) of 16 µg/mL, an MIC (Staphylococcus aureus [2]) of 8 µg/mL and an MIC (Staphylococcus aureus [3]) of 8 µg/mL. The MIC (Staphylococcus aureus [4]) was 8 µg/mL, the MIC (Staphylococcus aureus [5]) was 64 µg/mL and the MIC (Escherichia coli) was greater than 128 µg/mL. It also gave an MIC (Staphylococcus aureus [6]) of 16 µg/mL, an MIC (Staphylococcus aureus [7]) of 8 µg/mL and an MIC (Staphylococcus aureus [8]) of 32 µg/mL. For the same compound, the selectivity ratio [9] was 2.7, the MIC (Staphylococcus aureus [10]) was 32 µg/mL and the MIC (Staphylococcus aureus [11]) was 16 µg/mL. The MIC (Staphylococcus aureus [12]) was 8 µg/mL, the MIC (Staphylococcus aureus [13]) was 8 µg/mL and the HC50 at 1 h [14] was 85.9 µg/mL.

`C=CCc1cc(-c2ccc(OCCC[N+](C)(C)CC(=O)NCCCC)c(CC=C)c2)c2oc(-c3ccccc3Br)nc2c1.[Br-]` showed an MIC (Staphylococcus aureus [1]) of 4 µg/mL, an MIC (Staphylococcus aureus [2]) of 2 µg/mL and an MIC (Staphylococcus aureus [3]) of 4 µg/mL. For the same compound, the MIC (Staphylococcus aureus [4]) was 4 µg/mL, the MIC (Staphylococcus aureus [5]) was 4 µg/mL and the MIC (Escherichia coli) was 128 µg/mL. The MIC (Staphylococcus aureus [6]) was 2 µg/mL, the MIC (Staphylococcus aureus [7]) was 4 µg/mL and the MIC (Staphylococcus aureus [8]) was 8 µg/mL. The selectivity ratio [9] was greater than 80, the MIC (Staphylococcus aureus [10]) was 4 µg/mL and the MIC (Staphylococcus aureus [11]) was 4 µg/mL. The MIC (Staphylococcus aureus [12]) was 4 µg/mL, the MIC (Staphylococcus aureus [13]) was 4 µg/mL and the HC50 at 1 h [14] was greater than 320 µg/mL.
